The IC50 is the concentration that gives 50% inhibition. Higher therefore signals lower potency. One may read the bioavailability as the share of a dose that reaches the circulation, judged against a reference dose that is usually intravenous. What is called AUC is concentration integrated over time. For orientation: half-life means the time in which the quantity being followed falls by half. The MRT is the average time that molecules of a dose stay in the body. Broadly, the Cmax is the peak of the concentration-time curve.

Molecules are shown by their SMILES. Read-outs that look alike come from different tables or passages of the source.

Consider seven molecules from US8691822B2, “Dihydropteridinone derivatives, preparation process and pharmaceutical use thereof” (Jiangsu Hengrui Medicine Co., Ltd., priority 2009, dated 2014).

For series [1], the system named is human cervix cancer cells Hela. Description: Plk Cell Proliferation Inhibition Assay (CCK8, 72 hours). Type of series: cell-based. Particulars: Hela cells highly expressing Plk. The text has this:
The following in vitro assay is to determine the activity of the compounds of the present invention for inhibiting the proliferation of human cervix cancer cells Hela, which has high expression of Plk.
The in vitro cellular assay described here is to determine the activity of the tested compounds for inhibiting the proliferation of cancer cells, which has high expression of Plk. The activity is represented by the […]. The general procedures for the assay are given as follows: The Hela cells highly expressing Plk (Institute of biochemistry and cell biology) were seeded to 96-well cell culture plate at a suitable concentration (exp 3000 cells/ml medium). The cells then were cultured in carbon dioxide (CO2) incubator and grew overnight. Then, the cell culture medium was replaced by fresh one with tested compounds added in it at serial concentrations (general 7 to 9 concentrations). Then the cells were put back to the incubator and cultured for continuous 72 hours. 72 hours later, the activity of the tested compounds for inhibiting the cell proliferation was determined by using CCK8 (cell counting kit-8, Dojindo, NO:CK04) method. IC50 value on tested cells were calculated by the data of inhibition rates of serial concentrations of the tested compounds.

Series [2] has as its system xenografts of HT-116 human colon cancer. Description: Therapeutic effects against xenografts of HT-116 human colon cancer in nude mice. The series is classed as in vivo. The note with it: nude mice bearing HT-116 xenografts. On the procedure: The therapeutic effect of Example 1 against xenografts of HT-116 human colon cancer in nude mice was estimated.
Preparation method: the compound of Example 1 was prepared to corresponding concentration by using normal saline.
BALB/cA-nude mice, 6 to 7 weeks old, ♀, purchased from Slaccas Experimental Animal LTD., CO.
Nude mice were hypodermic inoculated HT-116 human colon cancer cell. After tumors grew to 60-150 mm^3, mice were randomly divided into teams (d0).
The volume of tumors and the weigh of the mice were measured and recorded for 2-3 times per week.
The calculation formula of the volume of tumor (V) is: V=½×a×b^2, a: length of tumor, b: width of tumor.
(In general: In xenograft studies the graft and the host belong to different species.)

The nature of series [3]: Pharmacokinetics assay in rats (plasma concentration by LC/MS/MS). The series is classed as in vivo. Particulars: SD rats, 25 mg/kg; for AUC: read-out: Area Under Curve AUC; for half-life: read-out: Half-Life t½ (converted); for MRT: read-out: Mean Residence Time MRT. On the procedure:
The compound 37 of the present invention was administrated intravenous injection or intragastrically to rats to determine the drug concentration in plasma at different time points by LC/MS/MS method. The pharmacokinetic behavior of the compounds of the present invention was studied and evaluated in rats.
The right amount of tested compound was dissolved in 0.5 mL of DMSO, added with 1.5 mL of 0.1 M HCl, then diluted with normal saline to 2.5 mg/mL of suspension before use.
8 Healthy adult adult SD rats, male and female in half, were divided into 2 groups. After an overnight fast, the rats were administered intragastrically or administered via tail intravenous injection at a dose of 25.0 mg/kg.
25 μL of rat plasmas taken at various time points after administration were mixed with 20 μL of internal standard solution and 150 μL methanol for 3 minutes by using a vortexer and the mixture was centrifuged for 10 minutes at 13,500 rpm. 5 μL of the supernatant was analyzed by LC-MS/MS.
Plasma concentration was used as the abscissa, the ratio of chromatographic peak area between the sample and internal standard was used as the ordinate, the linear regression was carried out by the weighted least square method (w=1/x^2). The main pharmacokinetic parameters were calculated by DAS 2.0 software.

Setting [4] is: both sexes, rat, plasma, po, intragastric administration.
[5] abbreviates: both sexes, rat, plasma, intravenous injection.

`CC[C@@H]1C(=O)N(C)c2cnc(Nc3ccc(C(=O)NC4CCN(C)CC4)c4c3OCC4)nc2N1C1CCCC1` [Example 1, 7-[[(7R)-8-Cyclopentyl-7-ethyl-5-methyl-6-oxo-7H-pteridin-2-yl]amino]-N-(1-methyl-piperidyl)-2,3-dihydrobenzofuran-4-carboxamide] returned an IC50 in series [1] of 0.9 nM. The “toxicity (in words)” value in series [2] is “less toxity”.

In turn, `CC[C@@H]1C(=O)N(C)c2cnc(Nc3ccc(C(=O)NC[C@@H](CN4CCN(CC5CC5)CC4)OC)c4c3OCC4)nc2N1C(C)C` [Example 36, N-[(2S)-3-[4-(Cyclopropylmethyl)piperazin-1-yl]-2-methoxy-propyl]-7-[[(7R)-7-ethyl-8-isopropyl-5-methyl-6-oxo-7H-pteridin-2-yl]amino]-2,3-dihydrobenzofuran-4-carboxamide] showed an IC50 in series [1] of 7 nM. This counts as single-digit nanomolar.

Take `CC[C@@H]1C(=O)N(C)c2cnc(Nc3ccc(C(=O)N[C@H]4CC[C@H](N5CCN(CC6CC6)CC5)CC4)c4c3OCC4)nc2N1C(C)C` [Example 37, N-[(trans)-4-[4-(Cyclopropylmethyl)piperazin-1-yl]cyclohexyl]-7-[[(7R)-7-ethyl-8-isopropyl-5-methyl-6-oxo-7H-pteridin-2-yl]amino]-2,3-dihydrobenzofuran-4-carboxamide]: the “Clearance CL/F” value in series [3] (intravenous injection) was 0.33 ± 0.03 L/h/kg. In addition, the bioavailability in series [3] (both sexes, rat, plasma, oral, intragastric vs intravenous, read-out: oral bioavailability F) was 59.4%. Also, the Vd/F in series [3] (both sexes, rat, plasma, po, intragastric administration, read-out: Apparent Distribution Volume Vz/F) was 13.6 ± 1 L/kg. In series [3] (setting [4]), the area under the curve (AUC) came out at 45600 ± 9230 ng·h/mL, the half-life was 1030 ± 264 min and the MRT amounted to 26.1 ± 5 h. The CL/F in series [3] (both sexes, rat, plasma, po, intragastric administration, read-out: Clearance CL/F (converted)) was 9.5 mL/min/kg. In series [3] (both sexes, rat, plasma, po, intragastric administration, read-out: Plasma Conc. Cmax), the Cmax turned out to be 1860 ± 150 ng/mL. For the same molecule, in series [3] (setting [5]), the AUC came out at 76700 ± 6200 ng·h/mL, the half-life was 1040 ± 198 min and the MRT came out at 22.8 ± 4.3 h. Besides, 0.7 nM corresponded to half-maximal inhibition in series [1] (IC50).

In series [1], `CC[C@@H]1C(=O)N(C)c2cnc(Nc3ccc(C(=O)NC[C@@H](CN4CCN(C)CC4)OC)c4c3OCC4)nc2N1C1CCCC1` [Example 38, 7-[[(7R)-8-Cyclopentyl-7-ethyl-5-methyl-6-oxo-7H-pteridin-2-yl]amino]-N-[(2S)-2-methoxy-3-(4-methylpiperazin-1-yl)propyl]-2,3-dihydrobenzofuran-4-carboxamide] gave an IC50 of 2 nM.

In series [1], `CC[C@@H]1C(=O)N(C)c2cnc(Nc3ccc(C(=O)NC[C@@H](CN4CCN(C)CC4)OC)c4c3OCC4)nc2N1C(C)C` [Example 39, 7-[[(7R)-7-Ethyl-8-isopropyl-5-methyl-6-oxo-7H-pteridin-2-yl]amino]-N-[(2S)-2-methoxy-3-(4-methylpiperazin-1-yl)propyl]-2,3-dihydrobenzofuran-4-carboxamide] registered an IC50 of 6 nM.

In series [1], `CC[C@@H]1C(=O)N(C)c2cnc(Nc3ccc(C(=O)NC4CCN(C)CC4)c4c3OC(COC)C4)nc2N1C1CCCC1` (stereo partly drawn) [Example 40, 7-[[(7R)-8-Cyclopentyl-7-ethyl-5-methyl-6-oxo-7H-pteridin-2-yl]amino]-2-(methoxymethyl)-N-(1-methyl-4-piperidyl)-2,3-dihydrobenzofuran-4-carboxamide] came in with an IC50 of 2 nM.

The molecule `CC[C@@H]1C(=O)N(C)c2cnc(Nc3ccc(C(=O)N[C@H]4CC[C@@H](N5CCN(CC6CC6)CC5)CC4)c4c3OCC4)nc2N1C(C)C` [Example 44, N-[(cis)-4-[4-(Cyclopropylmethyl)piperazin-1-yl]cyclohexyl]-7-[[(7R)-7-ethyl-8-isopropyl-5-methyl-6-oxo-7H-pteridin-2-yl]amino]-2,3-dihydrobenzofuran-4-carboxamide] returned an IC50 in series [1] of 5 nM.
